For 14 molecules, Ki results are on record in patent US9469608B2, “Thrombin inhibitors” (Merck Sharp & Dohme Corp., priority 2012, dated 2016).

The term Ki denotes a measure of affinity in units of concentration, obtained from inhibition or displacement. Lower therefore signals higher affinity.

The first test has as its target human α-thrombin (Homo sapiens (Human), UniProt P00734). Description: In vitro assay for determining proteinase inhibition (thrombin Ki). The test is classed as biochemical.
Settings: not given
On the procedure: NMR determinations were made using 400 MHz field strength. Ki data was obtained according to the procedure described in Lewis, et al. Thromb. […] Reactions sensitive to moisture or air were performed under nitrogen or argon using anhydrous solvents and reagents. […] Typically, the analytical LC-MS system used consisted of a Waters ZQ platform with electrospray ionization in positive ion detection mode with an Agilent 1100 series HPLC with autosampler. The column was usually a Water Xterra MS C18, 3.0×50 mm, 5 μm. The flow rate was 1 mL/min, and the injection volume was 10 μL. UV detection was in the range 210-400 nm. […] Preparative HPLC purifications were usually performed using a mass spectrometry directed system. […] The mobile phases consisted of mixtures of acetonitrile (10-100%) in water containing 0.1% TFA. Flow rates were maintained at 50 mL/min, the injection volume was 1800 μL, and the UV detection range was 210-400 nm. Mobile phase gradients were optimized for the individual compounds. Reactions performed using microwave irradiation were normally carried out using an Emrys Optimizer manufactured by Personal Chemistry, or an Initiator manufactured by Biotage. Concentration of solutions was carried out on a rotary evaporator under reduced pressure. Flash chromatography was usually performed using a Biotage Flash Chromatography apparatus (Dyax Corp.) on silica gel ([…], 60 Å pore size) in pre-packed cartridges of the size noted. ^1H NMR spectra were acquired at 500 MHz spectrometers in CDCl3 solutions unless otherwise noted. Chemical shifts were reported in parts per million (ppm). Tetramethylsilane (TMS) was used as internal reference in CD3Cl solutions, and residual CH3OH peak or TMS was used as internal reference in CD3OD solutions. Coupling constants (J) were reported in hertz (Hz). Chiral analytical chromatography was performed on one of Chiralpak AS, Chiralpak AD, Chiralcel OD, Chiralcel IA, or Chiralcel OJ columns (250×4.6 mm) (Daicel Chemical Industries, Ltd.) with noted percentage of either ethanol in hexane (% Et/Hex) or isopropanol in heptane (% IPA/Hep) as isocratic solvent systems. Chiral preparative chromatography was conducted on one of Chiralpak AS, Chiralpak AD, Chiralcel OD, Ciralcel IA, or Chiralcel OJ columns (20×250 mm) (Daicel Chemical Industries, Ltd.) with desired isocratic solvent systems identified on chiral analytical chromatography or by supercritical fluid (SFC) conditions. Celite® (Fluka) diatomite is diatomaceous earth, and can be referred to as “celite”.
Relevant in vitro assays are referenced in Morrissette, et al., Bioorg. […] The assays were carried out at 25° C. in 0.05 M TRIS buffer pH 7.4, 0.15 M NaCl, 0.1% PEG. Trypsin assays also contained 1 mM CaC12.
Concentrations of stock solutions of Z-GPR-afc were determined from measurements of absorbance at 380 nm of the 7-amino-4-trifluoromethyl coumarin produced upon complete hydrolysis of an aliquot of the stock solution by thrombin.
Activity assays were performed by diluting a stock solution of substrate at least tenfold to a final concentration ≦0.1 Km into a solution containing enzyme or enzyme equilibrated with inhibitor. Times required to achieve equilibration between enzyme and inhibitor were determined in control experiments. Initial velocities of product formation in the absence (Vo) or presence of inhibitor (Vi) were measured. Assuming competitive inhibition, and that unity is negligible compared Km/[S], [I]/e, and [I]/e (where [S], [I], and e respectively represent the total concentrations, of substrate, inhibitor and enzyme), the equilibrium constant (Ki) for dissociation of the inhibitor from the enzyme can be obtained from the dependence of Vo/Vi on [I] shown in the following equation.
Regarding `NCc1ccc(Cl)cc1CNC(=O)[C@@H]1CCN1C(=O)C1OCc2ccccc21` (stereo partly drawn) [Compound 33-7, (2S)-N-{2-(Aminomethyl)-5-chlorobenzyl}-1-(1,3-dihydroisobenzofuran-1-carbonyl)azetidine-2-carboxamide-2,2,2-trifluoroacetate], the Ki worked out at 39 nM.

`NCc1ccc(Cl)cc1CNC(=O)[C@@H]1CCCN1C(=O)[C@H]1CCCO1` [Compound 38-4, (S)—N-{2-(Aminomethyl)-5-chlorobenzyl}-1-{(R)-tetrahydrofuran-2-carbonyl}pyrrolidine-2-carboxamide-2,2,2-trifluoroacetate] had a Ki of 100 nM. Against the preceding molecule, the Ki is about 2.6-fold higher.

The same test, now with this note: 25° C., 0.05 M TRIS buffer pH 7.4, 0.15 M NaCl, 0.1% PEG; competitive inhibition assumed.
As for `NCc1ccc(Cl)cc1CNC(=O)[C@@H]1CCCN1C(=O)c1ccc(C(F)(F)F)[nH]1` [Compound 4-5, (S)—N-{2-(Aminomethyl)-5-chlorobenzyl}-1-{5-(trifluoromethyl)-1H-pyrrole-2-carbonyl}pyrrolidine-2-carboxamide], the Ki worked out at 27 nM.

Molecule `NCc1ccc(Cl)cc1CNC(=O)[C@@H]1CCCN1C(=O)C1(O)CCCc2cccnc21` (stereo partly drawn) [Compound 32-7, (2S)-N-{2-(aminomethyl)-5-chlorobenzyl}-1-(8-hydroxy-5,6,7,8-tetrahydroquinoline-8-carbonyl)pyrrolidine-2-carboxamide bis(2,2,2-trifluoroacetate)] displayed a Ki of 3.9 nM.

With `Cc1ccc(C(=O)N2CCC[C@@]2(C)C(=O)NCc2cc(Cl)ccc2CN)[nH]1` [Compound 45, (S)-N-(2-(aminomethyl)-5-chlorobenzyl)-2-methyl-1-(5-methyl-1H-pyrrole-2-carbonyl)pyrrolidine-2-carboxamide], the Ki was 93 nM.

The molecule `NCc1ccc(Cl)cc1CNC(=O)[C@@H]1CCCN1C(=O)c1cc(C(O)c2ccncc2)c[nH]1` (stereo partly drawn) [Compound 6-2, (2S)-N-{2-(Aminomethyl)-5-chlorobenzyl}-1-[4-{hydroxyl(pyridine-4-yl)methyl}-1H-pyrrole-2-carbonyl]pyrrolidine-2-carboxamide-bis(2,2,2-trifluoroacetate)] registered a Ki of 21 nM.

On to `NCc1ccc(Cl)cc1CNC(=O)[C@@H]1CCCN1C(=O)c1ncccn1` [Compound 42-3, (S)—N-(2-(Aminomethyl)-5-chlorobenzyl)-1-(pyrimidine-2-carbonyl)pyrrolidine-2-carboxamide bis(2,2,2-trifluoroacetate)], for which the affinity, expressed as Ki, was 260 nM. Compared with the last molecule, the Ki is about 12-fold higher.

`NCc1ccc(Cl)cc1CNC(=O)[C@@H]1CCCN1C(=O)C1COc2ccccc21` (stereo partly drawn) [Compound 24-8, (2S)-N-{2-(Aminomethyl)-5-chlorobenzyl}-1-(2,3-dihydrobenzofuran-3-carbonyl)pyrrolidine-2-carboxamide-2,2,2-trifluoroacetate] showed a Ki of 9.2 nM.

In turn, `NCc1ccc(Cl)cc1CNC(=O)[C@@H]1CCCN1C(=O)c1cc(C(=O)c2ccccn2)c[nH]1` [Compound 10-7, (S)—N-{2-(Aminomethyl)-5-chlorobenzyl}-1-(4-picolinoyl-1H-pyrrole-2-carbonyl) pyrrolidine-2-carboxamide-bis(2,2,2-trifluoroacetate)] registered a Ki of 17 nM. Against the preceding molecule, the Ki is about 1.8-fold higher.

The molecule `NCc1ccc(Cl)cc1CNC(=O)[C@@H]1CCCN1C(=O)c1cc(-c2cccnc2)c[nH]1` [Compound 14-5, (S)—N-{2-(Aminomethyl)-5-chlorobenzyl}-1-{4-(pyridin-3-yl)-1H-pyrrole-2-carbonyl}pyrrolidine-2-carboxamide bis(2,2,2-trifluoroacetate)] registered a Ki of 22 nM.

With `NCc1ccc(Cl)cc1CNC(=O)[C@@H]1CCCN1C(=O)C1(O)CCc2cccnc21` (stereo partly drawn) [Compound 20-8, (2S)-N-(2-(Aminomethyl)-5-chlorobenzyl)-1-(7-hydroxy-6,7-dihydro-5H-cyclopenta[b]pyridine-7-carbonyl)pyrrolidine-2-carboxamide-bis(2,2,2-trifluoroacetate)], the Ki came to 7.7 nM. Against the preceding molecule, the Ki is about 2.9-fold lower.

`NCc1ccc(Cl)cc1CNC(=O)[C@@H]1CCCN1C(=O)C1NCc2ccccc21` (single isomer, unassigned) [Compound 23-4b, bis(2,2,2-trifluoroacetate)] showed an inhibition constant Ki of 1.1 nM.

`NCc1ccc(Cl)cc1CNC(=O)[C@@H]1CCN1C(=O)C1NCc2ccccc21` (stereo partly drawn) [Compound 34-7, (2S)-N-{2-(aminomethyl)-5-chlorobenzyl}-1-(isoindoline-1-carbonyl)azetidine-2-carboxamide bis(2,2,2-trifluoroacetate)] displayed a Ki of 2.5 nM. This Ki lies about 2.3-fold higher than the previous one.

For `NCc1ccc(Cl)cc1CNC(=O)[C@@H]1CCCN1C(=O)c1cc(C(=O)c2cccnc2)c[nH]1` [Compound 8-8, (S)—N-{2-(aminomethyl)-5-chlorobenzyl}-1-(4-nicotinoyl-1H-pyrrole-2-carbonyl)pyrrolidine-2-carboxamide-bis(2,2,2-trifluoro acetate], the affinity, expressed as Ki, was 18 nM.
